One may read the Ki as a measure of affinity in units of concentration, obtained from inhibition or displacement. High values mean a looser hold on the target, low ones a stronger hold on the target.

We go through one compound from PMC6253765, “Synthesis and Herbicidal Activities of Novel 4-(4-(5-methyl-3-arylisoxazol-4-yl)thiazol-2-yl)piperidyl Carboxamides and Thiocarboxamides” (Molecules, 2009).

The assay deals with T1, D1 protease (CtpA) (Spinacia oleracea, UniProt Q36792).
T1 construct: native spinach CtpA protein purified from spinach thylakoid
T1 sequence (Q36792 147-539): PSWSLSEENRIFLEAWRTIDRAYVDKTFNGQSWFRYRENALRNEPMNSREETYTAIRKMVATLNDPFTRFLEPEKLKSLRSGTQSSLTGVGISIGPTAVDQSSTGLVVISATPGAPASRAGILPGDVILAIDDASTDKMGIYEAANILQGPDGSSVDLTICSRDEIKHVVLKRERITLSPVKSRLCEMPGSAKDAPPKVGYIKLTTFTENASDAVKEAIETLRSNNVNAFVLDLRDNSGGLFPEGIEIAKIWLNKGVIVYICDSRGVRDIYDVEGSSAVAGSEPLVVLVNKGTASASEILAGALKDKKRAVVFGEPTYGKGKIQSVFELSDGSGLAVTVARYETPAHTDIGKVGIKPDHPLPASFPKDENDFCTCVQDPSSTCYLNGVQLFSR
Put plainly: HPLC assay of cleavage of S24 peptide substrate; Dixon plot. It is filed as biochemical.

Compound `CCCCNC(=O)N1CCC(c2nc(-c3c(-c4ccccc4F)noc3C)cs2)CC1` [4m, N-butyl-4-(4-(3-(2-fluorophenyl)-5-methylisoxazol-4-yl)thiazol-2-yl)piperidine-1-carboxamide] came in with an inhibition constant Ki of 1300 nM.
